{
  "source": "patent US11975000B1",
  "about": "“Tadalafil oral transmucosal film” (Xiamen LP Pharmaceutical Co., Ltd., priority 2023, dated 2024)",
  "origin": "cited, not measured here",
  "key": {"[1]": {"settings": "in vivo"}},
  "data": [
    {"compound": "CN1CC(=O)N2[C@H](c3ccc4c(c3)OCO4)c3[nH]c4ccccc4c3C[C@@H]2C1=O", "note": "[Tadalafil, (6R-trans)-6-(1,3-benzodioxol-5-yl) 2,3,6,7,12,12a-hexahydro-2-methyl-pyrazino[1′,2′:1,6]pyrido[3,4-b]indole-1,4-dione]", "values": [
      {"measurement": "Solubility (in words)", "result": "practically insoluble in water"},
      {"measurement": "Water solubility", "setting": "in water at 25° C., U.S. Pat. No. 6,841,167", "result": "about 2 μg/mL"},
      {"measurement": "Duration of action", "setting": "[1]", "result": "24 to 36", "unit": "h"},
      {"measurement": "Reported maximum duration", "setting": "[1]", "result": 72, "unit": "h"}
    ]}
  ]
}
